Literature values as cited in patent publication US20240156798A1, “ANTIOXIDANT COMPOSITIONS AND METHODS OF USE” (Sanare Pharmaceuticals, priority 2022, published 2024).
Entries after “also recorded” stand apart in the source; their conditions may differ. Where two headings read alike, the source gives them in different places.

Assays:
ocular damage [1] = settings: topical application, rhesus monkey
[2] = tested on: chemically induced colitis; settings: in vivo
[3] = hundreds of animal models
ocular damage [4] = settings: topical application, rat
[5] = tested on: radiation induced alopecia; settings: topical, human clinical trials
[6] = tested on: high fat diet induced NAFLD; settings: for high fat diet induced NAFLD: mice fed a high fat diet
[7] = tested on: experimentally induced glaucoma; settings: C57BL/6J mice
[8] = tested on: human retinal pigment epithelium (RPE)
[9] = tested on: photo-induced retinal degeneration; settings: intraperitoneal injection
dry eye = settings: eye drop administration
[10] = tested on: acetic acid-induced experimental colitis; settings: NAC 100 mg/kg for seven days
IBD = settings: 168 patients, double blind, placebo-controlled
[11] = tested on: normal tension glaucoma (NTG)
retinal degeneration = settings: several models of neurodegeneration and damage, including retinal degeneration
ocular alkali burn = settings: in vivo
[12] = tested on: retinal ganglion cell (RCG) death after optic nerve crush
U.C. = U.C. patients, open label
[13] = RPE from both positive and negative AMD donors
[14] = systemic treatment, following optic nerve crush

## 4-hydroxy-2,2,6,6-tetramethylpiperidin-1-oxyl [TEMPOL]
Gene expression
  Glutathione S-Transferase (GST) gene(s) expression: significantly increased
  TNFα regulation: downregulates
  expression levels of keratinocyte growth factor (KGF) gene: statistically increased
  expression of HIF-1α: statistically decreased
  expression of HIF-2α: statistically decreased
  expression of genes encoding for the 26s proteasome complex: significantly decreased
  expression of the ADIPOQ gene: statistically increased
Gene expression; cancer cells
  UNC5b: significantly increases
Ocular damage [1]
  ocular damage: decrease
[2]
  degree of both neutrophil inflammation and lipid peroxidation in the inflamed bowel: Reduction in the degree of both neutrophil
[3]
  safety concerns: No safety concerns
Ocular damage [4]
  ocular damage: decrease
[5]
  radiation induced alopecia: protect
[6]
  high fat diet induced NAFLD: Can treat and prevent NAFLD in mice
[7]
  neuro-inflammation in the ocular hypertensive retina and optic nerve: decreased

## CC(=O)N[C@@H](CS)C(=O)O [NAC, N-acetyl-cysteine]
[8]; AMD RPE
  basal GSH content: increase
  basal ROS: reduction
[8]; H2O2, RPE from both positive and negative AMD donors
  GSH depletion: preventing
[8]; [13]
  H2O2 induced cell death: preventing
  excessive ROS accumulation: blocking
[8]; both groups of cells
  basal mitochondrial function (ATP): improved
[8]; patients with AMD
  effect on primary cultures of human RPE: positive (protective) effect
[9]
  oxidation and ER stresses: suppressed
[9]; Balb/c mouse
  ROS accumulation in the retina: inhibiting
[2]
  chemically induced colitis: Protects against chemically induced
Retinitis pigmentosa; applied to the cornea
  penetration to the posterior segment: able to penetrate to the posterior segment
Retinitis pigmentosa; applied topically to the eye
  protecting the retina from oxidative damage: effective
Dry eye
  levels of ROS and inflammasome signaling: diminished
[10]
  macroscopic and histological findings: protective role
[10]; compared to vehicle controls
  GSH concentration: restoration
  NO concentration: restoration
  colon tissue MPO activity: significant decrease
[6]; HFD mice
  glucose tolerance: improved
  morphology of hepatic tissue: totally restored
[6]; mice fed high fat diets (HFD), compared to normally fed mice
  hepatic steatosis and metabolic disturbances: significantly reduced
IBD
  Phase 2 study result: Positive results in a Phase 2
[11]; EAAC1 KO mice
  glutathione levels: increased
  oxidative stress and autophagy: suppressed
[11]; mouse model of NTG
  effect on retinal degeneration: protective effect
[11]; mouse, in vivo
  decline of retinal function: prevented
  retinal ganglion cells (RGC), NTG-like neurodegeneration: protected

## C[C@H](CCC(=O)NCCS(=O)(=O)O)[C@H]1CC[C@H]2[C@@H]3[C@@H](O)C[C@@H]4C[C@H](O)CC[C@]4(C)[C@H]3CC[C@]12C [TUDCA, tauroursodeoxycholic acid]
Retinal degeneration
  apoptosis following cellular injury: block
[2]
  chemically induced colitis: Active against chemically induced colitis
Ocular alkali burn
  cornea and retina injury: protect
  ocular inflammation: inhibit
[12]; in vivo
  retinal ganglion cells in the optic crush model: Protects retinal ganglia cells in the optic; also recorded: Protects retinal ganglion cells in the optic
[12]; [14]
  RCGs survival: significantly enhanced
  apoptosis: suppressed
U.C.
  Phase 1 study testing efficacy and safety: Positive results in an open label Phase 1; also recorded: Positive results in Phase 1 study testing
[6]; TUDCA alone, mice
  progression of HFD induced NALFD: attenuate
[6]
  high fat diet induced NAFLD: markedly reduces
[6]; mouse, in vivo
  gut inflammation: attenuates; also recorded: ameliorating
  intestinal barrier function: improves; also recorded: improving
  intestinal fat transport: decreases; also recorded: decreasing
  intestinal microbiota composition: modulates; also recorded: modulating
